Laboratory results as given in patent EP3442964B1, “NOVEL N-[(PYRIMIDINYLAMINO)PROPANYL]-AND N [(PYRAZINYLAMINO)PROPANYL]ARYLCARBOXAMIDES” (Boehringer Ingelheim International GmbH, priority 2016, dated 2017).
Where two headings read alike, the source gives them in different places.

Legend:
[1] = Assay C: metabolic stability in human liver microsomes (human MST); assay type: in vitro ADME; settings: pooled human liver microsomes, pH 7.6, 1 µM test compound, 37°C
Description: Stability in human liver microsomes refers to the susceptibility of compounds to biotransformation in the context of selecting and/or designing drugs with favorable pharmacokinetic properties. The primary site of metabolism for many drugs is the liver. Human liver microsomes contain the cytochrome P450s (CYPs), and thus represent a model system for studying drug metabolization in vitro. Enhanced stability in human liver microsomes is associated with several advantages, including increased bioavailability and longer half-life, which can enable lower and less frequent dosing of patients. Thus, enhanced stability in human liver microsomes is a favorable characteristic for compounds that are to be used for drugs.
The metabolic stability of the compounds according to the invention may be investigated as follows: The metabolic degradation of the test compound is assayed at 37°C with pooled human liver microsomes. The final incubation volume of 100 µL per time point contains TRIS buffer pH 7.6 at room temperature (0.1 M), MgCl2 (5 mM), microsomal protein (1 mg/mL) and the test compound at a final concentration of 1 µM. Following a short pre-incubation period at 37°C , the reactions are initiated by addition of beta-nicotinamide adenine dinucleotide phosphate, reduced form (NADPH, 1 mM), and terminated by transferring an aliquot into solvent after different time points. After centrifugation (10000 g, 5 min), an aliquot of the supernatant is assayed by LC-MS/MS for the amount of parent compound. The half-life (t1/2) is determined by the slope of the semi-logarithmic plot of the concentration-time profile.

[2] = molecular target: T1, OX2R (Homo sapiens, UniProt O43614); settings: cited from earlier work; for OX2R pIC50: Table 3 of WO2016/034882; for IC50: corresponds to pIC50 of Table 3 of WO2016/034882
T1 sequence (O43614 1-444): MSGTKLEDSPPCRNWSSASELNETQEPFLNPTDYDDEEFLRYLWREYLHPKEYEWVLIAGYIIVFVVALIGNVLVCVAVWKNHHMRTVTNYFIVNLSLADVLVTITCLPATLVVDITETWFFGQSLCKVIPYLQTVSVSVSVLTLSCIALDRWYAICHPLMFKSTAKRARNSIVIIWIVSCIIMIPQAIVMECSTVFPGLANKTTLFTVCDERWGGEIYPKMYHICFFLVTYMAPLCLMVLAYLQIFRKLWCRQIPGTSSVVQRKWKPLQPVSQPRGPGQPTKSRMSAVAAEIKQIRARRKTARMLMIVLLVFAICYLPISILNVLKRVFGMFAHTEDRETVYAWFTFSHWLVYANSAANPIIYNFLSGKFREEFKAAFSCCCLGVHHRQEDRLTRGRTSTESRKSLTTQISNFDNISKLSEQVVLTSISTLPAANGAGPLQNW

[3] = molecular target: T2, human MDR1 P-gp (Homo sapiens, UniProt P08183); experiment: Assay D: efflux in MDCK cells transfected with the human MDR1 gene; assay type: in vitro ADME; settings: MDCK-MDR1 monolayers, pH 7.4, 37°C
T2 construct: expressed in transfected cells; host or cells: MDCK (MDCK-MDR1)
Method: The MDCK assay provides information on the potential of a compound to pass the blood brain barrier. Permeability measurements across polarized, confluent MDCK-MDR1 cell monolayers grown on permeable filter supports are used as an in vitro absorption model: apparent permeability coefficients (PE) of the compounds across the MDCK-MDR1 cell monolayers are measured (pH 7.4, 37°C) in apical-to-basal (AB) and basal-to-apical (BA) transport direction. The AB permeability (PEAB) represents drug absorption from the blood into the brain and the BA permeability (PEBA) drug efflux from the brain back into the blood via both, passive permeability as well as active transport mechanisms mediated by efflux and uptake transporters that are expressed on the MDCK-MDR1 cells, predominantly by the overexpressed human MDR1 P-gp. Identical or similar permeabilities in both transport directions indicate passive permeation, vectorial permeability points to additional active transport mechanisms. Higher PEBA than PEAB (PEBA/PEAB > 5) indicates the involvement of active efflux mediated by MDR1 P-gp, which might compromises the goal to achieve sufficient brain exposure. Therefore this assay provides valuable support for selection of compounds applicable for further in vivo testing. High permeability not limited by efflux at the blood brain barrier is a favourable characteristic for compounds that are to be used for drugs acting primarily in the CNS
Apparent permeability coefficients (PE) of the compounds across the MDCK-MDR1 cell monolayers are measured (pH 7.4, 37°C) in apical-to-basal (AB) and basal-to-apical (BA) transport direction. AB permeability (PEAB) represents drug absorption from the blood into the brain and BA permeability (PEBA) drug efflux from the brain back into the blood via both passive permeability as well as active transport mechanisms mediated by efflux and uptake transporters that are expressed on the MDCK-MDR1 cells, predominantly by the overexpressed human MDR1 P-gp. The compounds are assigned to permeability/absorption classes by comparison of the AB permeabilities with the AB permeabilities of reference compounds with known in vitro permeability and oral absorption in the human. Identical or similar permeabilities in both transport directions indicate passive permeation, vectorial permeability points to additional active transport mechanisms. Higher PEBA than PEAB indicates the involvement of active efflux mediated by MDR1 P-gp. Active transport is concentration- dependently saturable.
MDCK-MDR1 cells (1-2 x 10e5 cells/1 cm2 area) are seeded on filter inserts (Costar transwell polycarbonate or PET filters, 0.4 µm pore size) and cultured (DMEM) for 7 days. Subsequently, the MDR1 expression is boosted by culturing the cells with 5 mM sodium butyrate in full medium for 2 days. Compounds are dissolved in appropriate solvent (like DMSO, 1 -20 mM stock solutions). Stock solutions are diluted with HTP-4 buffer (128.13 mM NaCl, 5.36 mM KCI, 1 mM MgSO4, 1.8 mM CaCl2, 4.17 mM NaHCO3, 1.19 mM Na2HPO4 x 7H2O, 0.41 mM NaH2PO4xH2O, 15 mM HEPES, 20 mM glucose, 0.25 % BSA, pH 7.4) to prepare the transport solutions (0.1 - 300 µM compound, final DMSO <= 0.5 %). The transport solution (TL) is applied to the apical or basolateral donor side for measuring A-B or B-A permeability (3 filter replicates), respectively. The receiver side contains the same buffer as the donor side. Samples are collected at the start and end of experiment from the donor and at various time intervals for up to 2 hours also from the receiver side for concentration measurement by HPLC-MS/MS or scintillation counting. Sampled receiver volumes are replaced with fresh receiver solution.

[4] = molecular target: T3, human orexin 2 receptor (Homo sapiens, UniProt O43614); assay type: cell-based
T3 sequence (O43614 1-444): T1 sequence (O43614 1-444)
Description: Chem. Genomics 2009, 3, 22-32.

[5] = read-out: Data as determined in Assay C: Human MST t1/2
[6] = read-out: Assay C: Human MST t1/2
[7] = read-out: Assay D:MDCK efflux ratio (BA/AB)

T2 sequence (P08183 whole entry): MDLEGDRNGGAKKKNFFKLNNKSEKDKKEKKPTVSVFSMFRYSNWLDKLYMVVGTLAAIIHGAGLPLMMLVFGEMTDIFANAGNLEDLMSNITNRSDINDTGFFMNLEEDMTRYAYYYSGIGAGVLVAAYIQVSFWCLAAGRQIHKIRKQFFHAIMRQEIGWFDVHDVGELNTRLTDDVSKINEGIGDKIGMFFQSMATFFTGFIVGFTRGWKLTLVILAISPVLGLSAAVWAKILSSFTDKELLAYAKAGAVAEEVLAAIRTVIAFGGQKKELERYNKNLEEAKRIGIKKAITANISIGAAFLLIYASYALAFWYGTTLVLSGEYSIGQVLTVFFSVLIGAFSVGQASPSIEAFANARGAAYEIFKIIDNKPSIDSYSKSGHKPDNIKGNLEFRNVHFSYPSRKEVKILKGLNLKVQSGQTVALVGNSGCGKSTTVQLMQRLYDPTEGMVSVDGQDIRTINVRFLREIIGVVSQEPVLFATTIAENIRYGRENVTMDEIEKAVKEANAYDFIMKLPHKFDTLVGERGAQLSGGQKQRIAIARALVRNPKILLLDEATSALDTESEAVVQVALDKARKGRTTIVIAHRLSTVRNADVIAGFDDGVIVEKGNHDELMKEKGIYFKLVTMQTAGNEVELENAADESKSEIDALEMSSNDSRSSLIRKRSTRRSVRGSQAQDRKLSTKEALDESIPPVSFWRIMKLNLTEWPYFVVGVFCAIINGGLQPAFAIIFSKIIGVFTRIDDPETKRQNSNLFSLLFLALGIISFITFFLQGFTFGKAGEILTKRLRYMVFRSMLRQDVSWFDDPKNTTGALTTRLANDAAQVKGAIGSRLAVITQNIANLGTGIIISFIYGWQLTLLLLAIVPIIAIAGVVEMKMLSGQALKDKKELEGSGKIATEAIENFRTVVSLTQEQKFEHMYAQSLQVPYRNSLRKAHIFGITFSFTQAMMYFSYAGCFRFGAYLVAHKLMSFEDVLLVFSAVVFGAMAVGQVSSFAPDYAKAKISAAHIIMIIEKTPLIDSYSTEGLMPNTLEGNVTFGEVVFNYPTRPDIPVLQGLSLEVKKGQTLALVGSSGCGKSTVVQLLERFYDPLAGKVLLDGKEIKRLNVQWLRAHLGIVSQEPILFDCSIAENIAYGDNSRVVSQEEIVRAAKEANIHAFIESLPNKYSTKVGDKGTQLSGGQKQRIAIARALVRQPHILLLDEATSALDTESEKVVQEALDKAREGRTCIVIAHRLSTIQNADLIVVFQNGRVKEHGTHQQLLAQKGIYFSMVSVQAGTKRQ

SMILES	half-life at 1 µM [1, 6]	efflux ratio [3, 7]	Kb ([4]; 0.5 nM Orexin A)	other results
CCN(C(=O)c1cc(F)ccc1-c1ncccn1)[C@@H](C)Cn1nnc(-c2ccc(F)cc2)n1 [Example 70 in WO2013/187466, reference compound]				half-life at 1 µM [1, 5]: 0.267 h
CC[C@@H](CNc1ncc(C(F)(F)F)cn1)N(C)C(=O)c1nc(C)ccc1-c1ncccn1 [Example 84 in WO2016/034882]	0.683 h	< 3		OX2R pIC50 [2]: 6.0; IC50 [2]: 1000 nM
CCN(C(=O)c1ccc(F)cc1-c1nnc(C)o1)[C@@H](C)CNc1cnc(C(F)(F)F)cn1 [Example 23]	> 2 h	3 to 5	222 nM	
CCN(C(=O)c1ccc(F)cc1-c1ncccn1)[C@@H](C)CNc1ncc(C(F)(F)F)cn1 [Example 16]	1.67 h	< 3	76.8 nM	
CCN(C(=O)c1cc(F)cnc1-n1nccn1)[C@@H](C)CNc1ncc(C(F)(F)F)cn1 [Example 10]	> 2 h	< 3	1060 nM	
C[C@@H](CNc1ccc(Cl)cn1)N(C)C(=O)c1ccccc1-c1ccccc1 [Example 14 in WO2016/034882, reference compound]	0.0333 h			
CCN(C(=O)c1nccnc1-c1ccccc1)[C@@H](C)CNc1ncc(C(F)(F)F)cn1 [Example 21]	> 2 h	< 3	55.9 nM	
CCN(C(=O)c1ccccc1-n1nccn1)[C@@H](C)CNc1cnc(C(F)(F)F)cn1 [Example 22]	> 2 h	3 to 5	7.37 nM	
CCN(C(=O)c1nc(C)ccc1-c1ncccn1)[C@@H](C)Cn1nnc(-c2ccc(F)cc2)n1 [Example 69 in WO2013/187466, reference compound]				half-life at 1 µM [1, 5]: 0.383 h
CCN(C(=O)c1ncccc1-c1ccccc1)[C@@H](C)CNc1ncc(C(F)(F)F)cn1 [Example 19]	> 2 h	< 3	12.5 nM	
CCN(C(=O)c1cncnc1-c1ccccc1)[C@@H](C)CNc1ncc(C(F)(F)F)cn1 [Example 20]	0.717 to 1.67 h	< 3	68 nM	
CCN(C(=O)c1cc(F)ccc1-c1ncccn1)[C@@H](C)CNc1ncc(C(F)(F)F)cn1 [Example 15]	> 2 h	< 3	22.9 nM	
Cc1nc(C(=O)N(C)CCNc2ncc(Br)cn2)c(-c2ccc(F)cc2)s1 [Example 6 in WO03/051872, reference compound]	0.133 h			Kb ([4]; 0.5 nM Orexin A concentration, read-out: Assay B: OX2R Kb): 101 nM; efflux ratio ([3]; read-out: Assay D: MDCK efflux ratio (BA/AB)): 0.8
CCN(C(=O)c1cc(C#N)ccc1-n1nccn1)[C@@H](C)CNc1ncc(C(F)(F)F)cn1 [Example 8]	> 2 h	3 to 5	33.4 nM	
CC[C@@H](CNc1ncc(C(F)(F)F)cn1)N(CC)C(=O)c1nc(C)ccc1-n1nccn1 [Example 73 in WO2016/034882]	0.183 h			OX2R pIC50 [2]: < 6.0; IC50 [2]: > 1000 nM
CCN(C(=O)c1c(F)cccc1-c1ncccn1)[C@@H](C)CNc1ncc(C(F)(F)F)cn1 [Example 13]	> 2 h	< 3	62 nM	
CCN(C(=O)c1ccc(F)c(F)c1-n1nccn1)[C@@H](C)CNc1ncc(C(F)(F)F)cn1 [Example 4]	1.58 h	< 3	46.9 nM	
CCN(C(=O)c1cc(F)ccc1-n1nccn1)[C@@H](C)CNc1ncc(C(F)(F)F)cn1 [Example 5]	2 h	< 3	35.3 nM	
CCN(C(=O)c1cccc(F)c1-c1ncccn1)[C@@H](C)CNc1ncc(C(F)(F)F)cn1 [Example 11]	> 2 h	3 to 5	19.3 nM	
CCN(C(=O)c1cccc(F)c1-n1nccn1)[C@@H](C)CNc1cnc(C(F)(F)F)cn1 [Example 24]	1.02 h	3 to 5	10 nM	
CCN(C(=O)c1nc(C)ccc1-n1cccn1)[C@@H](C)CNc1ncc(C(F)(F)F)cn1 [Example 12]	1.08 h	< 3	129 nM	
CCN(C(=O)c1ccc(F)cc1-n1nccn1)[C@@H](C)CNc1ncc(C(F)(F)F)cn1 [Example 2]	0.717 h	< 3	64.5 nM	
CCN(C(=O)c1c(F)cccc1-n1nccn1)[C@@H](C)CNc1ncc(C(F)(F)F)cn1 [Example 7]	1.27 h	< 3	33.4 nM	
CCN(C(=O)c1ccccc1-c1noc(C)n1)[C@@H](C)CNc1ncc(C(F)(F)F)cn1 [Example 14]	1.52 h	< 3	44 nM	
